Experimental data taken from article PMC5493200 (ACS infectious diseases, 2016).
In brackets after ≈: the same amount, converted by molar mass. Read-outs that look alike come from different tables or passages of the source.

Legend:
M. tuberculosis H37Rv = experiment: microbe, parasite or virus in culture; format: cell-based, Mycobacterium tuberculosis; details: for MIC (H37Rv): Table 5; for H37Rv MIC: Tables 1-4 and text
[1] = test system: M. tuberculosis H37Rv Rv1258c knockout (KO); experiment: microbe, parasite or virus in culture; format: cell-based; details: for Rv1258c KO MIC: Tables 1-4 and text, 7 days, 7H9 broth
[2] = biological target: Purified 70S M. smegmatis bacterial ribosomes (Mycolicibacterium smegmatis, UniProt A0QSG6); experiment: Ribosomal translation inhibition; format: biochemical; details: inhibits luciferase activity by 50%
M. bovis BCG = format: cell-based; details: average of 2–3 replicates, standard deviation in parenthesis
[3] = Microsomal stability, human; format: in vitro ADME; details: human liver microsomes
[4] = Microsomal stability, mouse; format: in vitro ADME; details: mouse liver microsomes
Protein binding, human = format: in vitro ADME
Protein binding, mouse = format: in vitro ADME
HepG2 cells = experiment: Mammalian cytotoxicity; format: cell-based
M. tuberculosis Erdman = experiment: Mouse model of acute tuberculosis infection; format: in vivo; details: 200 mg/kg BID, 9 days, subcutaneous, vs control
[5] = ref [18]; cited from earlier work
Rv1258c efflux pump = details: H37Rv MIC / Rv1258c KO MIC
[6] = human liver microsomes; starred compounds; ref [4]; cited from earlier work
[7] = mouse liver microsomes; starred compounds; ref [4]; cited from earlier work

Purified 70S M. smegmatis bacterial ribosomes, sequence (A0QSG6 whole entry): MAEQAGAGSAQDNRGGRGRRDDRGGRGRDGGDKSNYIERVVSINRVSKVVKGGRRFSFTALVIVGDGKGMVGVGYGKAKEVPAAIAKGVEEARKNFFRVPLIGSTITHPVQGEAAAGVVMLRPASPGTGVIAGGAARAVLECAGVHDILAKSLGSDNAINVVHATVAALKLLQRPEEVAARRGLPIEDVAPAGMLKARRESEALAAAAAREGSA

Compound	MIC (H37Rv) (M. tuberculosis H37Rv) [µg/mL]	H37Rv MIC (M. tuberculosis H37Rv) [µg/mL]	Rv1258c KO MIC [1] [µg/mL]	Ribosome IC50 [2] [µg/mL]	Post Antibiotic Effect (M. bovis BCG)	Microsomal stability t1/2 human [3] [h]	Microsomal stability t1/2 mouse [4] [h]	Protein binding human (Protein binding, human) [%]	Protein binding mouse (Protein binding, mouse) [%]	Cytotoxicity (HepG2) (HepG2 cells) [µg/mL]	Reduction of bacterial load in lungs (M. tuberculosis Erdman; first new trial (Figure 3B))	Phase II conjugative metabolism [5]	Reduction of bacterial load in lungs (M. tuberculosis Erdman; second new trial (Figure 3C)) [log]	MIC (M. tuberculosis H37Rv; Mycobacterium tuberculosis, H37RV, 168 h, read-out: H37Rv MIC) [µg/mL]	MIC ([1]; Mycobacterium tuberculosis, H37RV, 168 h, read-out: Rv1258c KO MIC) [µg/mL]	Efflux Ratio (Rv1258c efflux pump)	Microsomal stability t1/2 human [6] [h]	Microsomal stability t1/2 mouse [7] [h]
Br.Br.Br.CN[C@@H]1[C@H](O)[C@H](NC)[C@H]2O[C@]3(O)[C@H](O[C@@H]2[C@H]1O)O[C@H](C)C[C@H]3NC(=O)Cc1cc(Cl)c(C)cn1 [Compound 47, 3′-Dihydro-3′-deoxy-3′(R)-(4-chloro-5-methylpyridin-2-yl)acetylamino spectinomycin trihydrobromide]	0.8	0.8	0.8	0.23	102 (15) h	>50	>50	43.9	42.7	>400	more than 2 logs	subject to some phase II conjugative metabolism	–	–	–	–	–	–
Br.Br.Br.CN[C@@H]1[C@H](O)[C@H](NC)[C@H]2O[C@]3(O)[C@H](O[C@@H]2[C@H]1O)O[C@H](C)C[C@H]3NC(=O)Cc1cc(Cl)c(OC)cn1 [Compound 48, 3′-Dihydro-3′-deoxy-3′(R)-(4-chloro-5-methoxypyridin-2-yl)acetylamino spectinomycin trihydrobromide]	3.1	3.1	3.1	0.42	72 (10) h	6.3	5.5	61.6	72.9	>400	–	subject to metabolism	1.6	–	–	–	–	–
CN[C@@H]1[C@H](O)[C@H](NC)[C@H]2O[C@@]3(O)C(=O)C[C@@H](C)O[C@H]3O[C@@H]2[C@H]1O [SPC, Spectinomycin, reference compound]	–	–	–	–	–	–	–	–	–	–	–	–	–	100 (≈ 301 µM)	6.3 (≈ 19 µM)	16	2.5	>10
